The source of these data is patent US20020022718A1, “Genes identified as required for proliferation of E. coli” (priority 1999, published 2002).

≈ marks a conversion by molar mass, not a printed value. Read-outs that look alike come from different tables or passages of the source.

Data set [1] concerns Bacterial cells expressing antisense nucleic acid complementary to rplL and rplJ (50S ribosomal subunit proteins). Nature of the data set: microbe, parasite or virus in culture. In kind it is cell-based, E. coli. The note with it: for IC50: Escherichia coli; for Fold Increase in Sensitivity: IC50 −IPTG versus +IPTG (400 μM); for Sensitivity Increased?: significant decrease in IC50 in the presence of inducer IPTG. As to the method: Two-fold dilution series of antibiotics with a known mechanism of action are generated in the culture media selected for further assay development that has been supplemented with the antibiotic used to maintain the construct. A panel of test antibiotics known to act on different pathways is tested side by side with three to four wells being used to evaluate the effect of a test antibiotic on cell growth at each concentration. Equal volumes of test antibiotic and cells are added to the wells of a 384 well microtiter plate and mixed. Cells are prepared as described above using the media selected for assay development supplemented with the antibiotic required to maintain the antisense construct and are diluted 1:100 in identical media immediately prior to addition to the microtiter plate wells. For a control, cells are also added to several wells that contain the solvent used to dissolve the antibiotics but no antibiotic. Cell growth is monitored continuously by incubation at 37° C. in a microtiter plate reader monitoring the OD600 of the wells over an 18-hour period. […] A plot of percent inhibition against log[antibiotic concentration] allows extrapolation of an IC50 value for each antibiotic.
The culture media selected for use in the assay is supplemented with inducer at concentrations shown to inhibit cell growth by 50% and 80% as described above and the antibiotic used to maintain the construct. Two fold dilution series of the panel of test antibiotics used above are generated in each of these media. Several antibiotics are tested side by side with three to four wells being used to evaluate the effects of an antibiotic on cell growth at each concentration, in each media. Equal volumes of test antibiotic and cells are added to the wells of a 384 well microtiter plate and mixed. Cells are prepared as described above using the media selected for use in the assay supplemented with the antibiotic required to maintain the antisense construct. […] Immediately prior to addition to the microtiter plate wells, the cultures are adjusted to an appropriate OD600 (typically 0.002) by dilution into warm (37° C.) sterile media supplemented with identical concentrations of the inducer and antibiotic used to maintain the antisense construct. For a control, cells are also added to several wells that contain solvent used to dissolve test antibiotics but which contain no antibiotic. Cell growth is monitored continuously by incubation at 37° C. in a microtiter plate reader monitoring the OD600 of the wells over an 18-hour period. […] A plot of percent inhibition against log[antibiotic concentration] allows extrapolation of an IC50 value for each antibiotic.
Antibiotics of various chemical classes and modes of action were purchased from Sigma Chemicals (St. Louis, Mo.). Stock solutions were prepared by dissolving each antibiotic in an appropriate aqueous solution based on information provided by the manufacturer. The final working solution of each antibiotic contained no more than 0.2% (w/v) of any organic solvent. To determine their potency against a bacterial strain engineered for expression of an antisense complementary to a proliferation-required gene encoding 50S ribosomal protein, each antibiotic was serially diluted two or three fold in growth medium supplemented with the appropriate antibiotic for maintenance of the anti-sense construct. At least ten dilutions were prepared for each antibiotic. 25 μL aliquots of each dilution were transferred to discrete wells of a 384-well microplate (the assay plate) using a multi-channel pipette. Quadruplicate wells were used for each dilution of an antibiotic under each treatment condition (plus and minus inducer). Each assay plate contained twenty wells for cell growth controls (growth media replacing antibiotic), ten wells for each treatment (plus and minus inducer, in this example IPTG).

In data set [2] the test system is E. coli transformed with IPTG-inducible antisense clones (AS-rplW, AS-rplLrplJ, AS-elaD, AS-visC, AS-yohH, AS-atpB/E). Put plainly: Cell-based assay: antibiotic sensitivity of E. coli antisense clones pretreated with IPTG (Example 9). The source says: The effectiveness of the above cell-based assay was validated using constructs expressing antisense RNA to the proliferation required E. coli genes rplL, rplJ, and rplW encoding ribosomal proteins L7/L12, L10 and L23 respectively. These proteins are part of the protein synthesis apparatus of the cell and as such are required for proliferation. These constructs were used to test the effect of antisense expression on cell sensitivity to antibiotics known to bind to the ribosome and thereby inhibit protein synthesis. Constructs expressing antisense RNA to several other genes (elaD, visC, yohH, and atpE/B), the products of which are not involved in protein synthesis were used for comparison.
First, pLEX5BA (Krause et al., J. Mol. Biol. 274: 365 (1997), the disclosure of which is incorporated herein by reference in its entirety) expression vectors containing antisense constructs to either rplW or to elaD were introduced into separate E. coli cell populations. Vector introduction is a technique well known to those of ordinary skill in the art. The expression vectors of this example contain IPTG inducible promoters that drive the expression of the antisense RNA in the presence of the inducer. However, those skilled in the art will appreciate that other inducible promoters may also be used. Suitable expression vectors are also well known in the art. The E. coli antisense clones to genes encoding ribosomal proteins L7/L12, L10 and L23 were used to test the effect of antisense expression on cell sensitivity to the antibiotics known to bind to these proteins. […]
The cell populations were exposed to a range of IPTG concentrations in liquid medium to obtain the growth inhibitory dose curve for each clone (FIG. 1). First, seed cultures were grown to a particular turbidity that is measured by the optical density (OD) of the growth solution. […] The cells were grown for up to 15 hours and the extent of growth was determined by measuring the optical density of the cultures at 600 nm. […]

The test system of another data set is Klebsiella pneumoniae. Put plainly: Growth inhibition by induced E. coli antisense RNA in Klebsiella pneumoniae. In kind it is cell-based. Set-up: key: +: a positive in Table V below means that at least 10 fold more cells were required to observe a colony on the induced plate than on the non-induced plate; −: If there was no effect of antisense RNA expression in a microorganism, the clone is minus in Table V below. The note with it: antisense RNA expression induced with IPTG, serial dilution plating. A digest of the protocol:
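An E. coli antisense fragment (b3052 portion), or other E. coli-inhibitory antisense clones, was expressed in each species on IPTG induction (1 mM). Serial 10-fold dilutions were spotted on selective agar with or without IPTG overnight. The score is the log difference in maximal colony-forming dilution, induced vs uninduced (0 = no effect; positive = at least 10-fold).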

Consider `CC[C@H]1OC(=O)[C@H](C)[C@@H](O[C@H]2C[C@@](C)(OC)[C@@H](O)[C@H](C)O2)[C@H](C)[C@@H](O[C@@H]2O[C@H](C)C[C@H](N(C)C)[C@H]2O)[C@](C)(O)C[C@@H](C)C(=O)[C@H](C)[C@@H](O)[C@]1(C)O` [Erythromycin], for which the figures for the IC50 in data set [1] (read-out: IC50 (+IPTG)) and in data set [1] (read-out: IC50 (−IPTG)) were 0.187 µg/mL (≈ 0.255 µM) and 7.47 µg/mL (≈ 10.2 µM), respectively. Moreover, the “Fold Increase in Sensitivity” value in data set [1] came out at 40. The “Sensitivity Increased?” value in data set [1] was “Yes”. In addition, the sensitivity to antibiotic result in data set [2] (initial experiments, clones with antisense to non-protein synthesis genes elaD, atpB/E and visC) is reported as “do not”; in data set [2] (initial experiments, clones with antisense to protein synthesis genes (L7/L12 & L10, L7/L12 alone, L22, L18, rRNA, Elongation Factor G)), “increased sensitivity”.

`CCn1cc(C(=O)O)c(=O)c2ccc(C)nc21` [Nalidixic acid]: the IC50 – broadly, the concentration that gives 50% inhibition – worked out at 6.03 µg/mL (≈ 25.9 µM) in data set [1] (read-out: IC50 (+IPTG)) and 6.97 µg/mL (≈ 30 µM) in data set [1] (read-out: IC50 (−IPTG)). Moreover, the “Fold Increase in Sensitivity” value in data set [1] was 1. In addition, in data set [1], the “Sensitivity Increased?” value is reported as “No”. Also, the sensitivity to antibiotic entry in data set [2] (cells/clone expressing antisense to rplL and rplJ (L7/L12, L10), IPTG induced) is recorded as “does not show increased sensitivity”.

B1: EcXA192: antisense clone insert to E. coli rbsC, rpsB (nucleic acid, listed as Escherichia coli)
antisense: AGCGCAACAGCGGAAACCAGGGTAGCCAGTTTTTTCATGTTCATATTCAAGATGTCCTGTAGTCGTTATTACTGCTTTTTGTTGTCTACCAGCACCGCCAGCAAAATCACCACCGCTTTGACGATCATCTGGTAATAGGAGGAAACACCTAACAAATTCAATCCATTATTAAGGAAGCCAAGAATTAATGCGCCGATCAACGTCCCAACAATGCGACCTTT
For the molecule B1, the “Sensitivity of K. pneumoniae to antisense nucleic acid (growth inhibition, induced vs. uninduced)” value in the data set with Klebsiella pneumoniae was “−”.

B2: EcXA185: antisense clone insert to E. coli rpsK (nucleic acid, listed as Escherichia coli)
antisense: CCCTGACGATCAGTGATAGTCACGATGGTGTTGTTGAAAGAAGCATGGATATGAGCCACGCCGTCAG
B2: the “Sensitivity of K. pneumoniae to antisense nucleic acid (growth inhibition, induced vs. uninduced)” value with Klebsiella pneumoniae is given as “−”.

B3: EcXA186: antisense clone insert to E. coli yagG (nucleic acid, listed as Escherichia coli)
antisense: AGCAAAGCGAGCCGAACATGGTGGCGAGGCTGCCGTAAAGTAAAAACTGGGTCGCCAACTCCGGGTGATCCATCACGTATTTCACGAAGTAGAGCGTCGCCCCGCCGCGCACCACGTTGGAGCAGGTCGCCATCATCTTGAACGCGCACATGATGCGCCACTGGCTGTTGCCCAGC
Take B3: in the data set with Klebsiella pneumoniae, the “Sensitivity of K. pneumoniae to antisense nucleic acid (growth inhibition, induced vs. uninduced)” value is “−”.

B4: EcXA187: antisense clone insert to E. coli b2271 (nucleic acid, listed as Escherichia coli)
antisense: TNNCANNNNCNNNNNNNNNNNNNNNNCNCNNTNCCTAGANTNTCNANGTCTNCNCNCNCNTNNCCNNNCCCTTCNNNNCCNNNNANANGNNCNNCNCCCCCNNNCCCNNTTTTGTTTTGGAAANTCCGTTTCAGGAANAGCTTCTGAATCCCGANCGNTTGATAACTGNNGGCCAGAGTCATAATGCGCACCAATAATAATCAGCGGNCCATCGGCAGGACCATAATCAGCAACAATGNNNNGGTAGGGGCCACCCGTAATGGGGACCGTCCTGCGAGGTAACTCTGGCACCGCTACTGACAAAGACCTCTTTTATATATTCTGCGGGACCTATTCAGATTATCAATATTGTCNGGCACTACGTGGATGCACAAGTTTGTGTAAGATAACGAACTGNTTTTTCTAATTGCTCAGGACTTTGCGTGTCGGGGCCGTTGACGGTAATGCATTGACCCAGGGTTGGTAAAAAATAATCATAGGGAGTAAAAACACAAATAATATAATAAAAGCCAAGATTATTTTTTTCATATGCAAAATTATTAATGGGGTTGCGTTTGGTGAATCATTATNTTGCTATGGGTTTCGATATTGNGATTTTAATTAAAGATTAAGCANGGGATTATACCAAAAGA
modifications: misc_feature (1)...(632): n = A,T,C or G
notes: antisense clone insert to E. coli b2271
As for B4, the “Sensitivity of K. pneumoniae to antisense nucleic acid (growth inhibition, induced vs. uninduced)” value with Klebsiella pneumoniae is “+ (a positive in Table V below means that at least 10 fold more cells were required to observe a colony on the induced plate than on the non-induced plate)”.
